In patent US11291640B2, “Endoxifen for the treatment of bipolar I disorder” (Jina Pharmaceuticals, Inc., priority 2020, dated 2022):
Structures can show the parent of a compound that is named as a salt.

Tests used:
[1] = test system: patients of bipolar I disorders; experiment: Clinical study, total YMRS score at each visit; type: in vivo; conditions: day 21 (EOT); patient with bipolar I disorders
Description: (§1) Clinical study of an enteric coated tablet comprising endoxifen citrate formulation was carried out by administering to the patient doses of 2 mg to 16 mg of endoxifen citrate in an enteric coated tablet once per day for at least 21 days according to the present application.
(§2) The clinical study was a multicenter, randomized, double-blind, double-dummy, active controlled, parallel study to assess the efficacy and safety of endoxifen enteric coated tablet 8 mg and divalproex sodium extended release tablet 1000 mg in patients of bipolar I disorders.
(§3) Total 228 patients were enrolled in the study. All 228 patients were qualified for safety and mITT population and 213 patients were qualified for PP population.

[2] = test system: patients of bipolar I disorders; experiment: Clinical study, MADRS score at each visit; type: in vivo; conditions: day 21 (EOT); patient with bipolar I disorders
Description: as §1, §2, §3

[3] = test system: patients of bipolar I disorders; experiment: Clinical study, response time, remission time and therapeutic dose monitoring; type: in vivo; conditions: from table 1 and 2
Description: The term “response time” means an early indicator of treatment efficacy and it is not more than 2 days of treatment according to the embodiments described herein.
The term “remission time” refers to an absence or minimal symptoms of both mania and depression, which is not more than 4 days of treatment according to the embodiments described herein. Remission is the target of acute treatment.
as §1, §2

PKC = conditions: cited from earlier work

Question: Which results are given for CC/C(=C(\c1ccc(O)cc1)c1ccc(OCCNC)cc1)c1ccccc1 [Endoxifen, (Z)-1-(4-Hydroxyphenyl)-1-{4-[2-(monomethylamino)ethoxy]phenyl}-2-pheny 1-1-butene citrate]?
Answer: improvement in the YMRS score [1]: significant and sustained improvements; improvement in the MADRS score [2]: significant and sustained improvements; early response time of the treatment [3]: at least 2 days; remission time of treatment [3]: not more than 4 days; potency in inhibiting the PKC activity compared to tamoxifen (PKC): four-fold higher potency
